Measured values taken from publication PMC9014412 (Journal of medicinal chemistry, 2022).

Columns and labels:
[1] = target: HDAC1 (Homo sapiens, UniProt Q13547); assay: HDAC1 degradation by quantitative western blotting in HCT116 cells; details: HCT116 cells; for HDAC1 degradation in initial screen (in words): 24 h, 0.1, 1 and 10 μM, compared with 1 at 10 μM
Method: (§3) Initially, each PROTAC was tested at 0.1, 1, and 10 μM in HCT116 cells for 24 h; then, cell extracts were prepared and evaluated for HDAC1/2 and 3 degradation by quantitative western blotting.
(§4) This cell line was incubated at 37 °C with 5% CO2.
(§5) HCT116 cells were seeded into 6-well plates (4 × 10^5 cells/well for 24 h, 2 × 10^5 cells/well for 48 h) for 24 h and then treated with DMSO or compounds at the indicated concentrations in fresh medium (5 mL total). After desired treatment time, the cells were harvested and then lysed in lysis buffer (50 mM Tris-HCl, 150 mM NaCl, 0.5% NP-40, 0.5% Triton X-100) supplemented with a protease inhibitor (Sigma, P8340). The suspension was incubated on ice for 30 min and centrifuged (18,000 rcf, 15 min, 4 °C); then, the supernatant was collected, and protein concentrations were quantified via Bradford Assay using Protein Assay Dye Reagent Concentrate (BIO-RAD). […] PageRuler Plus Prestained Ladder was used for size standards. After gel electrophoresis at 140 V for 90 min, the separated proteins were transferred onto a nitrocellulose membrane at 30 V for 60 min. The membranes were probed with primary antibodies (see the Supporting Information) for 60−90 min. Blots were developed with complimentary IRDye-conjugated secondary antibodies, and the bands were visualized using an Odyssey infrared imaging system. Image processing and band intensity quantification were performed using Image Studio Lite.

[2] = target: HDAC3 (Homo sapiens, UniProt O15379); assay: HDAC3 degradation by quantitative western blotting in HCT116 cells; details: HCT116 cells, 24 h, 0.1, 1 and 10 μM; compared with 1 at 10 μM
Method: as §3, §4, §5

[3] = test system: H3K56ac; assay: Histone H3 Lys 56 acetylation (H3K56ac) western blotting; type: cell-based, human; details: HCT116 cells, 24 h, screen at 0.1, 1, 10 μM; relative to DMSO, CI-994 and 1 at 10 μM
From the text: (§1) Supporting Information: Biology
(§2) Representative blots of two independent biological replicates.

[4] = target: HDAC2 (Homo sapiens, UniProt Q92769); assay: HDAC2 degradation by quantitative western blotting in HCT116 cells; details: for HDAC2 degradation in initial screen (in words): HCT116 cells, 24 h, 0.1, 1 and 10 μM, compared with 1 at 10 μM
[5] = test system: HCT116 cells; assay: CellTiter-Glo 2.0 cell viability assay; type: cell-based, human
Method: CellTiter-Glo 2.0 Reagent (Promega UK Ltd, G9242) was equilibrated to room temperature and added to the wells in a ratio of 1 volume reagent:5 volumes medium. Background luminescence was determined using medium alone plus reagent. The plates were shaken on an orbital shaker for 2 min to induce cell lysis and then incubated in the dark at room temperature for 10 min to stabilize the luminescent signal. Luminescence was captured on a CLARIOstar plate reader (BMG Labtech Ltd, UK) at 22 °C to give relative luminescence units and analyzed using BMG Labtech software. EC50 values were calculated by nonlinear regression (Hill plot) and log (inhibitor) versus response—variable slopes (four parameters) using GraphPad Prism 9 software. Each compound dose response was repeated as four independent biological replicates (n = 4).

[6] = test system: SIN3A; assay: SIN3A protein levels by western blotting; type: cell-based, human; details: HCT116 cells, especially after 48 h
Method: as §1, §2
Figure S6. Representative Western blot of HDAC1/2/3 levels after 24 hours and 48 hours with 1
(JPS004), 7 (JPS014) and 9 (JPS016), and bar graph representation of HDAC1-3, LSD1 and Sin3a
protein levels after 24 hours and 48 hours as the average of three independent biological replicates.
(also on this page, place not known: HDAC1 24hHDAC2 24hHDAC3 24hHDAC1 48hHDAC2 48hHDAC3 %Protein Levels Remaining (Relative to DMSO) %Protein Levels Remaining (Relative to DMSO))

Sequence of HDAC2 (Q92769 whole entry): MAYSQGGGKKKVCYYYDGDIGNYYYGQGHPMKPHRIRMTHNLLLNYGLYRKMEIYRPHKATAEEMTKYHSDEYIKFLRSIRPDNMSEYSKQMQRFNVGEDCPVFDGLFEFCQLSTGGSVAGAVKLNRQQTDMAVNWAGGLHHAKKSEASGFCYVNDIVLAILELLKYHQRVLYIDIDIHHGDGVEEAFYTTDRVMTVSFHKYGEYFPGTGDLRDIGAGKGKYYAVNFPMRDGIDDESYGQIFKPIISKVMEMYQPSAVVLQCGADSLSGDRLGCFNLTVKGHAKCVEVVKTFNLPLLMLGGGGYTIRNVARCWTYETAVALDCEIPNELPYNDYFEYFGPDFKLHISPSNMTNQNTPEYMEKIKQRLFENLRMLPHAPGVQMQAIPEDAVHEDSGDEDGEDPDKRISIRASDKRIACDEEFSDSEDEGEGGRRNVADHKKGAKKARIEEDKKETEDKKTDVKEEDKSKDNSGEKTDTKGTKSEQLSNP
Sequence of HDAC3 (O15379 whole entry): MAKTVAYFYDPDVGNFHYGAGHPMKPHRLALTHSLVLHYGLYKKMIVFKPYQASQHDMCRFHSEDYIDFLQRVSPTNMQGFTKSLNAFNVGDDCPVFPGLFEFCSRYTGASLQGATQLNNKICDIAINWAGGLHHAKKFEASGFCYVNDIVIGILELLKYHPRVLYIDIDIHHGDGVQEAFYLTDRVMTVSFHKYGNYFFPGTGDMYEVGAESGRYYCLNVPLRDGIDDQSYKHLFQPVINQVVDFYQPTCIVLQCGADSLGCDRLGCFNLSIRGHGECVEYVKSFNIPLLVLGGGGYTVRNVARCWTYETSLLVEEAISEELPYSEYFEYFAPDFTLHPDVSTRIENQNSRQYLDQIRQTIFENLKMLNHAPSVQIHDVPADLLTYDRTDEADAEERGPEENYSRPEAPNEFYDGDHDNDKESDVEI
Sequence of HDAC3 (Q9Y618 389-480 partner limits assumed): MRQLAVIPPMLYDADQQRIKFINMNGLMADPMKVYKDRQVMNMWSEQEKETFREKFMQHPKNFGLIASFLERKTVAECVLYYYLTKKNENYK
Sequence of HDAC1 (Q13547 whole entry): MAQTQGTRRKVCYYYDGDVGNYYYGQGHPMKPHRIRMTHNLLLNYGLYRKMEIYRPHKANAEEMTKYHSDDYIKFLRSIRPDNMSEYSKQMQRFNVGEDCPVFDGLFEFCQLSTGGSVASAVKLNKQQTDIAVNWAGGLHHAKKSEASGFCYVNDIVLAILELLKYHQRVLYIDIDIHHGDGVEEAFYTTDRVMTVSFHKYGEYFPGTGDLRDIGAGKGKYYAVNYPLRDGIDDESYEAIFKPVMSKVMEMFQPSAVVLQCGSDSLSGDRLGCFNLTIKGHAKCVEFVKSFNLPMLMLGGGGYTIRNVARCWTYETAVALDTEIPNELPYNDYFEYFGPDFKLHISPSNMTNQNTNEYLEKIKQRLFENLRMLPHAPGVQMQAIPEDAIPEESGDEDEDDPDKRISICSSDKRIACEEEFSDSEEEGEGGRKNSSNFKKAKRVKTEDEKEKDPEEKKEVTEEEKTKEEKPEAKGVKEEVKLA

| Molecule | HDAC1 degradation in initial screen (in words) [1] | HDAC3 degradation in initial screen (in words) [2] | H3K56ac levels (in words) [3] | HDAC2 degradation in initial screen (in words) [4] | other results |
| --- | --- | --- | --- | --- | --- |
| Cc1ncsc1-c1ccc(CNC(=O)[C@@H]2C[C@@H](O)CN2C(=O)[C@@H](NC(=O)COCCOCCOCC(=O)Nc2ccc(C(=O)Nc3ccccc3N)cc2)C(C)(C)C)cc1 [Compound 11, (2S,4R)-1-((S)-14-((4-((2-Aminophenyl)carbamoyl)phenyl)-amino)-2-(tert-butyl)-4,14-dioxo-6,9,12-trioxa-3-azatetradecanoyl)-4-hydroxy-N-(4-(4-methylthiazol-5-yl)benzyl)pyrrolidine-2-carboxamide] | almost complete loss of HDAC1/2 degradation | generally compromised | did not increase H3K56ac levels compared to the dimethyl sulfoxide (DMSO) control | almost complete loss of HDAC1/2 degradation |  |
| Cc1ncsc1-c1ccc(CNC(=O)[C@@H]2C[C@@H](O)CN2C(=O)[C@@H](NC(=O)C2(F)CC2)C(C)(C)C)c(OCCCCCCCCCCCC(=O)Nc2ccc(C(=O)Nc3ccccc3N)cc2)c1 [Compound 22, (2S,4R)-N-(2-((12-((4-((2-Aminophenyl)carbamoyl)phenyl)-amino)-12-oxododecyl)oxy)-4-(4-methylthiazol-5-yl)benzyl)-1-((S)-2-(1-fluorocyclopropane-1-carboxamido)-3,3-dimethylbutanoyl)-4-hydroxypyrrolidine-2-carboxamide] |  |  | did not alter H3K56ac levels | reduction in HDAC1 and HDAC2 degradation compared to 1 | Effect on cell viability (in words) ([5]; CellTiter-Glo and flow cytometry): little effects on cell viability; Dmax ([4]; HCT-116, read-out: Dmax HDAC2): 18% |
| Cc1ncsc1-c1ccc(CNC(=O)[C@@H]2CC(O)CN2C(=O)[C@@H](NC(=O)COCCOCCOCCOCC(=O)Nc2ccc(C(=O)Nc3ccccc3N)cc2)C(C)(C)C)cc1 (stereo in doubt) [Compound 12, N1-(4-((2-Aminophenyl)carbamoyl)phenyl)-N14-((S)-1-((2S,4S)-4-hydroxy-2-((4-(4-methylthiazol-5-yl)benzyl)carbamoyl)-pyrrolidin-1-yl)-3,3-dimethyl-1-oxobutan-2-yl)-3,6,9,12-tetraoxatetradecanediamide] | almost complete loss of HDAC1/2 degradation | generally compromised | did not increase H3K56ac levels compared to the dimethyl sulfoxide (DMSO) control | almost complete loss of HDAC1/2 degradation |  |
| Cc1ncsc1-c1ccc(CNC(=O)[C@@H]2C[C@@H](O)CN2C(=O)C(NC(=O)CCCCCCCCCCC(=O)Nc2ccc(C(=O)Nc3ccc(F)cc3N)cc2)C(C)(C)C)cc1 (stereo in doubt) [Compound 15, N1-(4-((2-Amino-4-fluorophenyl)carbamoyl)phenyl)-N12-((S)-1-((2S,4R)-4-hydroxy-2-((4-(4-methylthiazol-5-yl)benzyl)carbamoyl)-pyrrolidin-1-yl)-3,3-dimethyl-1-oxobutan-2-yl)dodecanediamide] |  | enhanced HDAC3 degradation compared to 1 |  |  |  |
| Cc1ncsc1-c1ccc(CNC(=O)[C@@H]2C[C@@H](O)CN2C(=O)[C@@H](NC(=O)COCCCCCCOCC(=O)Nc2ccc(C(=O)Nc3ccccc3N)cc2)C(C)(C)C)cc1 [Compound 8, (2S,4R)-1-((S)-2-(2-((6-(2-((4-((2-Aminophenyl)carbamoyl)-phenyl)amino)-2-oxoethoxy)hexyl)oxy)acetamido)-3,3-dimethylbutanoyl)-4-hydroxy-N-(4-(4-methylthiazol-5-yl)benzyl)pyrrolidine-2-carboxamide] | comparable to that of 1 but not maintained at 1 μM | loss of HDAC3 degradation compared to 6 and 7 | matched those of CI-994 |  |  |
| Cc1ncsc1-c1ccc(CNC(=O)[C@@H]2C[C@@H](O)CN2C(=O)[C@@H](NC(=O)COCCOCC(=O)Nc2ccc(C(=O)Nc3ccccc3N)cc2)C(C)(C)C)cc1 [Compound 10, (2S,4R)-1-((S)-2-(2-(2-(2-((4-((2-Aminophenyl)carbamoyl)-phenyl)amino)-2-oxoethoxy)ethoxy)acetamido)-3,3-dimethylbutanoyl)-4-hydroxy-N-(4-(4-methylthiazol-5-yl)benzyl)pyrrolidine-2-carboxamide] | almost complete loss of HDAC1/2 degradation | generally compromised | did not increase H3K56ac levels compared to the dimethyl sulfoxide (DMSO) control | almost complete loss of HDAC1/2 degradation |  |
| Cc1ncsc1-c1ccc(CNC(=O)[C@@H]2C[C@@H](O)CN2C(=O)C(NC(=O)COCCOCCOCC(=O)Nc2ccc(C(=O)Nc3ccc(F)cc3N)cc2)C(C)(C)C)cc1 (stereo in doubt) [Compound 16, (2S,4R)-1-((S)-14-((4-((2-Amino-4-fluorophenyl)carbamoyl)-phenyl)amino)-2-(tert-butyl)-4,14-dioxo-6,9,12-trioxa-3-azatetradecanoyl)-4-hydroxy-N-(4-(4-methylthiazol-5-yl)benzyl)-pyrrolidine-2-carboxamide] |  | only modest HDAC3 degradation at 10 μM |  |  |  |
| Cc1ncsc1-c1ccc(CNC(=O)[C@@H]2C[C@@H](O)CN2C(=O)[C@@H](NC(=O)CCCN2CCN(CCCC(=O)Nc3ccc(C(=O)Nc4ccccc4N)cc3)CC2)C(C)(C)C)cc1 [Compound 13, (2S,4R)-1-((S)-2-(4-(4-(4-((4-((2-Aminophenyl)carbamoyl)-phenyl)amino)-4-oxobutyl)piperazin-1-yl)butanamido)-3,3-dimethylbutanoyl)-4-hydroxy-N-(4-(4-methylthiazol-5-yl)benzyl)-pyrrolidine-2-carboxamide] | almost complete loss of HDAC1/2 degradation | generally compromised | did not increase H3K56ac levels compared to the dimethyl sulfoxide (DMSO) control | almost complete loss of HDAC1/2 degradation |  |
| (2S,4R)-1-((S)-2-(2-((9-((4-((2-Aminophenyl)carbamoyl)phenyl)-amino)-9-oxononyl)oxy)acetamido)-3,3-dimethylbutanoyl)-4-hydroxy-N-(4-(4-methylthiazol-5-yl)benzyl)pyrrolidine-2-carboxamide [Compound 6] |  | significantly enhanced compared to that of 1 | increased H3K56ac to comparable or greater levels than CI-994 and 1 |  |  |
| Cc1ncsc1-c1ccc(CNC(=O)[C@@H]2C[C@@H](O)CN2C(=O)[C@@H](NC(=O)COCCOCCOCC(=O)Nc2ccc(C(=O)Nc3cc(-c4cccs4)ccc3N)cc2)C(C)(C)C)cc1 [Compound 20, (2S,4R)-1-((S)-14-((4-((2-Amino-5-(thiophen-2-yl)phenyl)-carbamoyl)phenyl)amino)-2-(tert-butyl)-4,14-dioxo-6,9,12-trioxa-3-azatetradecanoyl)-4-hydroxy-N-(4-(4-methylthiazol-5-yl)benzyl)-pyrrolidine-2-carboxamide] | did not result in enhanced degradation potency of HDAC1/2 |  | did increase H3K56ac to levels similar to 1 | did not result in enhanced degradation potency of HDAC1/2 | DC50 ([1]; read-out: DC50 HDAC1, 24 h, quantitative western blotting): 3.51 µM |
| Cc1ncsc1-c1ccc(CNC(=O)[C@@H]2C[C@@H](O)CN2C(=O)[C@@H](NC(=O)CCCCCCCCCCC(=O)Nc2ccc(C(=O)Nc3ccccc3N)cc2)C(C)(C)C)cc1 [Compound 1, N1-(4-((2-Aminophenyl)carbamoyl)phenyl)-N12-((S)-1-((2S,4R)-4-hydroxy-2-((4-(4-methylthiazol-5-yl)benzyl)carbamoyl)pyrrolidin-1-yl)-3,3-dimethyl-1-oxobutan-2-yl)dodecanediamide] |  |  |  |  | EC50 ([5]; Homo sapiens, HCT-116, 48 h, 48 h): 4.3 ± 0.5 µM |
| Cc1ncsc1-c1ccc(CNC(=O)[C@@H]2C[C@@H](O)CN2C(=O)[C@@H](NC(=O)COCCCCCCCCCOCC(=O)Nc2ccc(C(=O)Nc3ccc(F)cc3N)cc2)C(C)(C)C)cc1 [Compound 17, (2S,4R)-1-((S)-2-(2-((9-(2-((4-((2-Amino-4-fluorophenyl)-carbamoyl)phenyl)amino)-2-oxoethoxy)nonyl)oxy)acetamido)-3,3-dimethylbutanoyl)-4-hydroxy-N-(4-(4-methylthiazol-5-yl)-benzyl)pyrrolidine-2-carboxamide] | significant HDAC1 degradation was also still observed at 1 μM | HDAC3 degradation was also enhanced at 1 μM compared to 1 | greater than twofold increase in H3K56ac compared to the DMSO control |  |  |
| CC(=O)Nc1ccc(C(=O)Nc2ccccc2N)cc1 [CI-994, reference compound] |  |  |  |  | SIN3A levels (in words) [6]: significantly reduced |
